{"source": "ChEMBL document CHEMBL5053556", "about": "“Design, Synthesis, and Biological Evaluation of a Novel Series of Teriflunomide Derivatives as Potent Human Dihydroorotate Dehydrogenase Inhibitors for Malignancy Treatment” (J Med Chem, 2021)", "key": {"[1]": {"system": "Raji", "assay": "Antiproliferative activity against human Raji cells assessed as cell growth inhibition incubated for 96 hrs by MTT assay", "type": "functional, cell-based"}, "[2]": {"system": "Raji", "assay": "Antiproliferative activity against human Raji cells assessed as cell growth inhibition at 0.2 uM preincubated with uridine for 24 hrs followed by compound addition and measured after 72 hrs by MTT assay", "type": "functional", "design": "scale not given: the % may be the effect or the level left"}, "[3]": {"assay": "Plasma protein binding in rat at 10 uM incubated for 5 hrs by LC-MS analysis", "type": "ADME, cell-free", "conditions": "read-out: PPB (converted); call rule not given here"}, "[4]": {"assay": "Cmax in Sprague-Dawley rat at 15 mg/kg, po measured after 48 hrs by LC-MS analysis", "type": "ADME, organism-based", "design": "dose 15 mg/kg, time 48 hrs, route po", "conditions": "in vivo"}, "[5]": {"assay": "Half life in Sprague-Dawley rat at 5 mg/kg, iv measured after 48 hrs by LC-MS analysis", "type": "ADME, organism-based", "conditions": "in vivo"}, "[6]": {"assay": "AUC(0 to t) in Sprague-Dawley rat at 15 mg/kg, po measured after 48 hrs by LC-MS analysis", "type": "ADME, organism-based", "design": "dose 15 mg/kg, time 48 hrs, route po", "conditions": "in vivo"}, "[7]": {"assay": "Acute toxicity in BALB/c mouse assessed effect on body weight at 400 mg/kg, po", "type": "organism-based", "conditions": "in vivo"}, "[8]": {"system": "HEL", "assay": "Antiproliferative activity against human HEL cells assessed as cell growth inhibition incubated for 96 hrs by MTT assay", "type": "functional, cell-based"}, "[9]": {"system": "Raji", "assay": "Antitumor activity against human Raji cells xenografted in NOD-SCID mouse assessed as tumor growth inhibition at 40 mg/kg, po administered for 25 days", "type": "functional", "conditions": "600 h, time 25 day, read-out: TGI"}, "[10]": {"system": "Mus musculus", "assay": "Toxicity in NOD-SCID mouse xenografted with human Raji cells assessed as mortality at 40 mg/kg, po administered for 25 days", "type": "organism-based", "conditions": "in vivo, 600 h, time 25 day"}, "[11]": {"system": "Raji", "assay": "Antitumor activity against human Raji cells xenografted in NOD-SCID mouse assessed as tumor growth inhibition at 30 mg/kg, po administered for 25 days", "type": "functional", "conditions": "600 h, time 25 day, read-out: TGI"}, "[12]": {"assay": "Drug distribution in NOD-SCID mouse liver at 40 mg/kg, po administered for 25 days by LC-MS analysis", "type": "ADME, organism-based", "conditions": "in vivo, 600 h, time 25 day"}, "[13]": {"assay": "Drug distribution in NOD-SCID mouse lung at 40 mg/kg, po administered for 25 days by LC-MS analysis", "type": "ADME, organism-based", "conditions": "in vivo, 600 h, time 25 day"}, "[14]": {"assay": "Acute toxicity in BALB/c mouse assessed as effect on heart at 400 mg/kg, po measured on day 14 by H and E staining based assay", "type": "organism-based", "conditions": "in vivo, 336 h, time 14 day"}}, "data": [{"smiles": "C/C(O)=C(\\C#N)C(=O)Nc1cc(O[C@@H](C)C(F)(F)F)c(C(=O)Nc2c(F)cccc2F)cc1F", "values": [{"measurement": "IC50", "setting": "[1]", "result": 7.7, "unit": "nM"}, {"measurement": "Activity", "setting": "[2]", "result": 17.1, "unit": "%"}, {"measurement": "fraction unbound at 5 h, 10 µM", "setting": "[3]", "result": 0.007}, {"measurement": "Cmax", "setting": "[4]", "result": 1270, "unit": "ng/mL"}, {"measurement": "half-life", "setting": "[5]", "result": 7.1, "unit": "h"}, {"measurement": "AUC(0-t) at 48 h", "setting": "[6]", "result": 29500, "unit": "ng·h/mL"}, {"measurement": "Activity", "setting": "[7]", "result": "Non-Toxic"}, {"measurement": "IC50", "setting": "[8]", "result": 20, "unit": "nM"}, {"measurement": "inhibition in vivo at 40 mg/kg", "setting": "[9]", "result": 83.6, "unit": "%"}, {"measurement": "Activity", "setting": "[10]", "result": "Non-Toxic"}, {"measurement": "inhibition in vivo at 30 mg/kg", "setting": "[11]", "result": 81.4, "unit": "%"}, {"measurement": "Drug uptake", "setting": "[12]", "result": "Active"}, {"measurement": "Drug uptake", "setting": "[13]", "result": "Active"}, {"measurement": "Activity", "setting": "[14]", "result": "Non-Toxic"}]}]}
